Like-named read-outs stand apart in the source and are kept apart here.
What was measured:
[1] = tested on: Cabbage Looper (Trichoplusia ni) ("CL"); test: Bioassay on cabbage looper (CL), 128-well diet tray assay; format: in vivo; conditions: for mortality at 50 µg/cm2: 168 h, 50 μg/cm^2 on artificial diet, second instar CL larvae, 25° C., five to seven days, average of eight wells, read-out: CL % Control (or Mortality) rating; for pest or weed control at 50 µg/cm2: activity rating class, read-out: CL (Biological Results, Insect species)
Description: (§1) Certain molecules disclosed in this document were tested against BAW and CEW using procedures described in the following examples. In the reporting of the results, the “BAW & CL Rating Table” was used (See Table Section). BIOASSAYS ON BAW
Bioassays on CL were conducted using a 128-well diet tray assay. one to five second instar CL larvae were placed in each well (3 mL) of the diet tray that had been previously filled with 1 mL of artificial diet to which 50 μg/cm^2 of the test compound (dissolved in 50 μL of 90:10 acetone-water mixture) had been applied (to each of eight wells) and then allowed to dry. Trays were covered with a clear self-adhesive cover and held at 25° C., 14:10 light-dark for five to seven days. Percent mortality was recorded for the larvae in each well; activity in the eight wells was then averaged. The results are indicated in the table entitled “Table ABC: Biological Results” (See Table Section).

[2] = tested on: Beet Armyworm (Spodoptera exigua) ("BAW"); test: Bioassay on beet armyworm (BAW), 128-well diet tray assay; format: in vivo; conditions: for mortality at 50 µg/cm2: 168 h, 50 μg/cm^2 on artificial diet, second instar BAW larvae, 25° C., five to seven days, average of eight wells, read-out: BAW % Control (or Mortality) rating; for pest or weed control at 50 µg/cm2: activity rating class, read-out: BAW (Biological Results, Insect species)
Description: as §1
Bioassays on BAW were conducted using a 128-well diet tray assay. one to five second instar BAW larvae were placed in each well (3 mL) of the diet tray that had been previously filled with 1 mL of artificial diet to which 50 μg/cm^2 of the test compound (dissolved in 50 μL of 90:10 acetone-water mixture) had been applied (to each of eight wells) and then allowed to dry. Trays were covered with a clear self-adhesive cover and held at 25° C., 14:10 light-dark for five to seven days. Percent mortality was recorded for the larvae in each well; activity in the eight wells was then averaged. The results are indicated in the table entitled “Table ABC: Biological Results” (See Table Section).

SMILES: CC(Cc1ccc(-c2ncn(-c3ccc(OC(F)(F)F)cc3)n2)cc1)NC(=O)NC(=S)Nc1ccccc1C(C)C (stereo not drawn) [F4, N-[2-(propan-2-yl)phenyl]-N′-[1-(4-{1-[4-(trifluoromethoxy)phenyl]-1H-1,2,4-triazol-3-yl}phenyl)propan-2-yl]dicarbonimidothioic diamide]
- mortality at 50 µg/cm2 [1]: 50 to 100%
- mortality at 50 µg/cm2 [2]: 50 to 100%

SMILES: CC(C)c1ccccc1NC(=S)NC(=O)NCc1ccc(-c2ncn(-c3ccc(OC(F)(F)C(F)(F)F)cc3)n2)cc1 [F15, N-(4-{1-[4-(pentafluoroethoxy)phenyl]-1H-1,2,4-triazol-3-yl}benzyl)-N′-[2-(propan-2-yl)phenyl]dicarbonimidothioic diamide]
- mortality at 50 µg/cm2 [1]: 50 to 100%
- mortality at 50 µg/cm2 [2]: 50 to 100%

SMILES: Cc1ccc(C(C)C)c(NC(=S)NC(=O)NCc2ccc(-c3ncn(-c4ccc(OC(F)(F)C(F)(F)F)cc4)n3)cc2)c1 [F16]
- mortality at 50 µg/cm2 [1]: 50 to 100%
- mortality at 50 µg/cm2 [2]: 50 to 100%

SMILES: CC(C)c1ccccc1N1C(=O)CS/C1=N\C(=O)NCc1ccc(-c2ncn(-c3ccc(OC(F)(F)F)cc3)n2)cc1 [F17, (Z)-1-(3-(2-isopropylphenyl)-4-oxothiazolidin-2-ylidene)-3-(4-(1-(4-(trifluoromethoxy)phenyl)-1H-1,2,4-triazol-3-yl)benzyl)urea]
- mortality at 50 µg/cm2 [1]: 50 to 100%
- mortality at 50 µg/cm2 [2]: 50 to 100%

SMILES: CC(C)c1ccccc1N1C(=O)CS/C1=N\C(=O)NCc1ccc(-c2ncn(-c3ccc(OC(F)(F)C(F)(F)F)cc3)n2)cc1 [F18, (Z)-1-(3-(2-isopropylphenyl)-4-oxothiazolidin-2-ylidene)-3-(4-(1-(4-(perfluoroethoxy)phenyl)-1H-1,2,4-triazol-3-yl)benzyl)urea]
- mortality at 50 µg/cm2 [1]: 50 to 100%
- mortality at 50 µg/cm2 [2]: 50 to 100%

SMILES: Cc1ccc(C(C)C)c(N2C(=O)CS/C2=N\C(=O)NCc2ccc(-c3ncn(-c4ccc(OC(F)(F)C(F)(F)F)cc4)n3)cc2)c1 [F19, (Z)-1-(3-(2-isopropyl-5-methylphenyl)-4-oxothiazolidin-2-ylidene)-3-(4-(1-(4-(perfluoroethoxy)phenyl)-1H-1,2,4-triazol-3-yl)benzyl)urea]
- mortality at 50 µg/cm2 [1]: 50 to 100%
- mortality at 50 µg/cm2 [2]: 50 to 100%

SMILES: COc1ccc(NC(=S)NC(=O)NC2CC2c2ccc(-c3ncn(-c4ccc(OC(F)(F)F)cc4)n3)cc2)c(C)c1 (stereo not drawn) [F26]
- mortality at 50 µg/cm2 [1]: 50 to 100%
- mortality at 50 µg/cm2 [2]: 50 to 100%

SMILES: Cc1ccc(C(C)C)c(NC(=S)NC(=O)NCc2ccc(-c3ncn(-c4ccc(OC(F)(F)F)cc4)n3)cc2)c1 [F35]
- mortality at 50 µg/cm2 [2]: 50 to 100%

SMILES: Cc1ccc(C(C)C)c(NC(=S)NC(=O)NCCc2ccc(-c3ncn(-c4ccc(OC(F)(F)F)cc4)n3)cc2C)c1 [FB1, 1-[(2-isopropyl-5-methyl-phenyl)carbamothioyl]-3-[2-[2-methyl-4-[1-[4-(trifluoromethoxy)phenyl]-1H-1,2,4-triazol-3-yl]phenyl]ethyl]urea]
- pest or weed control at 50 µg/cm2 ([1]; Table ABC (FB)): 50 to 100%
- pest or weed control at 50 µg/cm2 ([2]; Table ABC (FB)): 50 to 100%

SMILES: COc1ccc(C(C)C)c(NC(=S)NC(=O)NCCc2ccc(-c3ncn(-c4ccc(OC(F)(F)F)cc4)n3)cc2C)c1 [FB2]
- pest or weed control at 50 µg/cm2 ([1]; Table ABC (FB)): 50 to 100%
- pest or weed control at 50 µg/cm2 ([2]; Table ABC (FB)): 50 to 100%

SMILES: Cc1ccc(C(C)C)c(N2C(=O)CS/C2=N\C(=O)NCCc2ccc(-c3ncn(-c4ccc(OC(F)(F)F)cc4)n3)cc2C)c1 [FB3, (Z)-1-(3-(2-isopropyl-5-methylphenyl)-4-oxothiazolidin-2-ylidene)-3-(2-methyl-4-(1-(4-(trifluoromethoxy)phenyl)-1H-1,2,4-triazol-3-yl)phenethyl)urea]
- pest or weed control at 50 µg/cm2 ([1]; Table ABC (FB)): 50 to 100%
- pest or weed control at 50 µg/cm2 ([2]; Table ABC (FB)): 50 to 100%

SMILES: COc1ccc(C(C)C)c(N2C(=O)CS/C2=N\C(=O)NCCc2ccc(-c3ncn(-c4ccc(OC(F)(F)F)cc4)n3)cc2C)c1 [FB4, (Z)-1-(3-(2-isopropyl-5-methoxyphenyl)-4-oxothiazolidin-2-ylidene)-3-(2-methyl-4-(1-(4-(trifluoromethoxy)phenyl)-1H-1,2,4-triazol-3-yl)phenethyl)urea]
- pest or weed control at 50 µg/cm2 ([1]; Table ABC (FB)): 50 to 100%
- pest or weed control at 50 µg/cm2 ([2]; Table ABC (FB)): 50 to 100%

SMILES: CCc1ccccc1NC(=S)NC(=O)NCCc1ccc(-c2ncn(-c3ccc(OC(F)(F)F)cc3)n2)cc1C [FB5, 1-[(2-ethylphenyl)carbamothioyl]-3-[2-[2-methyl-4-[1-[4-(trifluoromethoxy)phenyl]-1H-1,2,4-triazol-3-yl]phenyl]ethyl]urea]
- pest or weed control at 50 µg/cm2 ([1]; Table ABC (FB)): 50 to 100%
- pest or weed control at 50 µg/cm2 ([2]; Table ABC (FB)): 50 to 100%

SMILES: CCc1ccccc1N1C(=O)CS/C1=N\C(=O)NCCc1ccc(-c2ncn(-c3ccc(OC(F)(F)F)cc3)n2)cc1C [FB6, (Z)-1-(3-(2-ethylphenyl)-4-oxothiazolidin-2-ylidene)-3-(2-methyl-4-(1-(4-(trifluoromethoxy)phenyl)-1H-1,2,4-triazol-3-yl)phenethyl)urea]
- pest or weed control at 50 µg/cm2 ([1]; Table ABC (FB)): 50 to 100%
- pest or weed control at 50 µg/cm2 ([2]; Table ABC (FB)): 50 to 100%

SMILES: Cc1cc(-c2ncn(-c3ccc(OC(F)(F)F)cc3)n2)ccc1CCNC(=O)/N=C1\SCC(=O)N1c1cc(Cl)ccc1C(C)C [FB7, (Z)-1-(3-(5-chloro-2-isopropylphenyl)-4-oxothiazolidin-2-ylidene)-3-(2-methyl-4-(1-(4-(trifluoromethoxy)phenyl)-1H-1,2,4-triazol-3-yl)phenethyl)urea]
- pest or weed control at 50 µg/cm2 ([1]; Table ABC (FB)): 50 to 100%
- pest or weed control at 50 µg/cm2 ([2]; Table ABC (FB)): 50 to 100%

SMILES: Cc1ccc(NC(=S)NC(=O)NCCCCc2ccc(-c3ncn(-c4ccc(OC(F)(F)F)cc4)n3)cc2)c(C)c1 [FB16, 1-[(2,4-dimethylphenyl)carbamothioyl]-3-[4-[4-[1-[4-(trifluoromethoxy)phenyl]-1H-1,2,4-triazol-3-yl]phenyl]butyl]urea]
- pest or weed control at 50 µg/cm2 ([1]; Table ABC (FB)): 50 to 100%

SMILES: Cc1ccc(-n2c(C)cs/c2=N\C(=O)NCc2ccc(-c3ncn(-c4ccc(OC(F)(F)F)cc4)n3)cc2)c(C(C)C)c1 [P20, (Z)-1-(3-(2-isopropyl-4-methylphenyl)-4-methylthiazol-2(3H)-ylidene)-3-(4-(1-(4-(trifluoromethoxy)phenyl)-1H-1,2,4-triazol-3-yl)benzyl)urea]
- mortality at 50 µg/cm2 [1]: 50 to 100%

SMILES: Cc1ccc(C(C)C)c(N2C(=O)CS/C2=N\C(=O)NCCc2cccc(-c3ncn(-c4ccc(OC(F)(F)F)cc4)n3)c2)c1 [P81]
- mortality at 50 µg/cm2 [1]: 50 to 100%

SMILES: COc1ccc(NC(=S)NC(=O)NCCc2cccc(-c3ncn(-c4ccc(OC(F)(F)F)cc4)n3)c2)c(C)c1 [PC87, 1-[(4-methoxy-2-methyl-phenyl)carbamothioyl]-3-[2-[3-[1-[4-(trifluoromethoxy)phenyl]-1H-1,2,4-triazol-3-yl]phenyl]ethyl]urea]
- pest or weed control at 50 µg/cm2 ([1]; Table ABC (PC)): 50 to 100%

SMILES: CCCc1ccc(C)cc1NC(=S)NC(=O)NCCCc1ccc(-c2ncn(-c3ccc(OC(F)(F)F)cc3)n2)cc1 [PC99, 1-[(5-methyl-2-propyl-phenyl)carbamothioyl]-3-[3-[4-[1-[4-(trifluoromethoxy)phenyl]-1H-1,2,4-triazol-3-yl]phenyl]propyl]urea]
- pest or weed control at 50 µg/cm2 ([2]; Table ABC (PC)): 50 to 100%

SMILES: Cc1ccc(NC(=S)NC(=O)NCCCc2ccc(-c3ncn(-c4ccc(OC(F)(F)F)cc4)n3)cc2)c(C(C)C)c1 [PC102, 1-[(2-isopropyl-4-methyl-phenyl)carbamothioyl]-3-[3-[4-[1-[4-(trifluoromethoxy)phenyl]-1H-1,2,4-triazol-3-yl]phenyl]propyl]urea]
- pest or weed control at 50 µg/cm2 ([2]; Table ABC (PC)): 50 to 100%

SMILES: CC(C)c1cc(F)ccc1NC(=S)NC(=O)NCCCc1ccc(-c2ncn(-c3ccc(OC(F)(F)F)cc3)n2)cc1 [PC103, 1-[(4-fluoro-2-isopropyl-phenyl)carbamothioyl]-3-[3-[4-[1-[4-(trifluoromethoxy)phenyl]-1H-1,2,4-triazol-3-yl]phenyl]propyl]urea]
- pest or weed control at 50 µg/cm2 ([2]; Table ABC (PC)): 0 to 50%

SMILES: Cc1ccc(NC(=S)NC(=O)NCCCCc2cccc(-c3ncn(-c4ccc(OC(F)(F)F)cc4)n3)c2)c(C(C)C)c1 [PC180, 1-[(2-isopropyl-4-methyl-phenyl)carbamothioyl]-3-[4-[3-[1-[4-(trifluoromethoxy)phenyl]-1H-1,2,4-triazol-3-yl]phenyl]butyl]urea]
- pest or weed control at 50 µg/cm2 ([2]; Table ABC (PC)): 0 to 50%

SMILES: CC(C)c1cc(F)ccc1NC(=S)NC(=O)NCCCCc1cccc(-c2ncn(-c3ccc(OC(F)(F)F)cc3)n2)c1 [PC181, 1-[(4-fluoro-2-isopropyl-phenyl)carbamothioyl]-3-[4-[3-[1-[4-(trifluoromethoxy)phenyl]-1H-1,2,4-triazol-3-yl]phenyl]butyl]urea]
- pest or weed control at 50 µg/cm2 ([2]; Table ABC (PC)): 0 to 50%

SMILES: COc1ccc(C(C)C)c(NC(=S)NC(=O)NCCCCc2cccc(-c3ncn(-c4ccc(OC(F)(F)F)cc4)n3)c2)c1 [PC182, 1-[(2-isopropyl-5-methoxy-phenyl)carbamothioyl]-3-[4-[3-[1-[4-(trifluoromethoxy)phenyl]-1H-1,2,4-triazol-3-yl]phenyl]butyl]urea]
- pest or weed control at 50 µg/cm2 ([1]; Table ABC (PC)): 50 to 100%
